Measurements: ChEMBL document CHEMBL6074638, “Stability studies of β-Amino- and β-Hydroxy difluoromethyl ketones in rat serum and rat liver microsomes” (Bioorg Med Chem Lett, 2024)

Key:
[1] = Metabolic stability in rat liver microsomes assessed as parent compound remaining measured after 30 mins in presence of NADPH by LC-MS/MS analysis; assay type: ADME, Microsome; conditions: read-out: Stability
[2] = Stability in rat serum assessed as parent compound remaining measured after 30 mins by LC-MS analysis; assay type: ADME, cell-free; conditions: read-out: Stability

Row | SMILES | remaining at 0.5 h [1] | remaining at 0.5 h [2]
1 | CC(=O)c1ccc(C(O)C(F)(F)C(=O)C23CC4CC(CC(C4)C2)C3)cc1 (configuration not stated) | 70.5% | 73%
2 | COc1ccc(C(O)C(F)(F)C(=O)c2ccc3ccccc3c2)cc1 (configuration not stated) | < 1% | 88.5%
3 | O=C(c1ccc(Cl)cc1)C(F)(F)C(NCc1ccccc1)c1ccccc1 (configuration not stated) | 2% | 87%
4 | CC(C)(C)OC(=O)NC(c1ccccc1)C(F)(F)C(=O)c1ccc2ccccc2c1 (configuration not stated) | 4% | 71.5%
5 | CC(C)(C)OC(=O)NC(c1ccccc1)C(F)(F)C(=O)c1ccc2c(c1)OCO2 (configuration not stated) | 2.5% | 100%
6 | O=C(c1ccc2ccccc2c1)C(F)(F)C(NCc1ccccc1)c1ccccc1 (configuration not stated) | 3.5% | 85%
7 | O=C(C12CC3CC(CC(C3)C1)C2)C(F)(F)C(O)c1ccc(Cl)cc1 (configuration not stated) | < 1% | 48.5%
8 | C/C=C/C=C/C(NCc1ccccc1)C(F)(F)C(=O)c1ccc2ccccc2c1 (configuration not stated) | 2% | 100%
9 | CC(C)(C)OC(=O)NC(c1cccc(Br)c1)C(F)(F)C(=O)c1ccc(Cl)cc1 (configuration not stated) | < 1% | 100%
10 | CC(C)(C)OC(=O)NC(c1ccc(Cl)cc1)C(F)(F)C(=O)c1ccc(Cl)cc1 (configuration not stated) | 3% | 83%
11 | O=C(c1cccc(SCc2ccccc2)c1)C(F)(F)C(NCc1ccccc1)c1ccccc1 (configuration not stated) | 12.5% | 97%
12 | O=C(c1ccc2ccccc2c1)C(F)(F)C(O)c1cccc(F)c1 (configuration not stated) | < 1% | 82%
13 | CC(C)(C)OC(=O)NC(c1cccc(F)c1)C(F)(F)C(=O)c1ccc(Cl)cc1 (configuration not stated) | < 1% | –
14 | CCC/C=C/C(O)C(F)(F)C(=O)C12CC3CC(CC(C3)C1)C2 (configuration not stated) | 63% | < 1%
15 | O=C(c1ccc2ccccc2c1)C(F)(F)CO | 41.5% | 100%
16 | COc1ccc(C(Nc2ccc(F)cc2)C(F)(F)C(=O)c2ccc3ccccc3c2)cc1 (configuration not stated) | 2% | 76%
17 | O=C(c1ccc2c(c1)OCO2)C(F)(F)C(O)c1ccccc1 (configuration not stated) | 53% | 83.5%
18 | O=C(c1ccc2ccccc2c1)C(F)(F)C(O)/C=C/c1ccccc1 (configuration not stated) | 75.5% | 90.5%
19 | O=C(c1ccc2ccccc2c1)C(F)(F)C(Nc1ccccc1)c1ccccc1 (configuration not stated) | 1% | 85%
20 | CC(C)(C)NC(c1ccccc1)C(F)(F)C(=O)c1ccc2ccccc2c1 (configuration not stated) | < 1% | 98%

Row | SMILES | remaining at 0.5 h [1] | remaining at 0.5 h [2]
21 | COc1ccc(NC(c2ccc(OC)cc2)C(F)(F)C(=O)c2ccc3ccccc3c2)cc1 (configuration not stated) | 7.5% | 100%
22 | O=C(c1ccc2ccccc2c1)C(F)(F)C(O)c1ccc(F)cc1 (configuration not stated) | < 1% | 96.5%
23 | O=C(c1ccc(Cl)cc1)C(F)(F)C(O)c1ccccc1 (configuration not stated) | 98.5% | 97%
24 | COc1ccc(C(NC(=O)OC(C)(C)C)C(F)(F)C(=O)c2ccc3ccccc3c2)cc1 (configuration not stated) | 10% | 61%
25 | COc1ccc(C(O)C(F)(F)C(=O)C23CC4CC(CC(C4)C2)C3)cc1 (configuration not stated) | 85.5% | 66.5%
26 | O=C(c1ccc2c(c1)OCO2)C(F)(F)C(O)c1ccc(Cl)cc1 (configuration not stated) | 11.5% | 85%
27 | CC(=O)c1ccc(C(O)C(F)(F)C(=O)c2ccc3ccccc3c2)cc1 (configuration not stated) | < 1% | 86.5%
28 | CC(C)(C)OC(=O)NC(c1ccc(Cl)cc1)C(F)(F)C(=O)c1ccc2ccccc2c1 (configuration not stated) | 7.5% | < 1%
29 | CC(C)(C)OC(=O)NC(c1ccc(F)cc1)C(F)(F)C(=O)c1ccc(Cl)cc1 (configuration not stated) | < 1% | 80.5%
30 | COc1ccc(C(Nc2ccccc2)C(F)(F)C(=O)c2ccc3ccccc3c2)cc1 (configuration not stated) | < 1% | 100%
31 | CC(C)(C)OC(=O)NC(c1ccc(F)cc1)C(F)(F)C(=O)c1ccc2ccccc2c1 (configuration not stated) | < 1% | 100%
32 | CC(C)(C)OC(=O)NC(c1ccc(Cl)cc1)C(F)(F)C(=O)c1ccc2c(c1)OCO2 (configuration not stated) | 83% | 89%
33 | CC(C)(C)OC(=O)NC(c1cccc(Br)c1)C(F)(F)C(=O)c1ccc2ccccc2c1 (configuration not stated) | 55% | 35.5%
34 | Cc1ccc(NC(c2ccc(F)cc2)C(F)(F)C(=O)c2ccc3ccccc3c2)cc1C (configuration not stated) | 2% | 74%
35 | COc1cc2c(cc1OC)C(C(F)(F)C(=O)c1ccc(C(F)(F)F)cc1)NCC2 (configuration not stated) | 7.5% | 97.5%
36 | O=C(C12CC3CC(CC(C3)C1)C2)C(F)(F)C(NCc1ccccc1)c1ccccc1 (configuration not stated) | < 1% | 100%
37 | CC(C)(C)OC(=O)NC(c1ccccc1)C(F)(F)C(=O)c1ccc(Cl)cc1 (configuration not stated) | < 1% | 99%
38 | CC(C)(C)OC(=O)NC(c1ccc(C(F)(F)F)cc1)C(F)(F)C(=O)c1ccc2ccccc2c1 (configuration not stated) | 27% | 48.5%
39 | CC(C)(C)OC(=O)NC(c1cccc(F)c1)C(F)(F)C(=O)c1ccc2ccccc2c1 (configuration not stated) | 5% | 98%
